Test results reported in patent publication US20150320773A1, “TREATMENT OF INFLAMMATION” (Vascular Biogenics Ltd., priority 2011, published 2015).

Experiments:
TLR4 = TLR4 (Homo sapiens, UniProt O00206); settings: human monocytes; LPS; 1.7, 8.5 or 17 μM
TLR2 = TLR2 (Homo sapiens, UniProt O60603); settings: human monocytes; BO-VB201; anti-human TLR2 blocking antibody
Description: Human monocytes were incubated for 15 min with anti-human TLR2 blocking antibody. […] Streptavidin-APC (1:200) was used to detect binding.

CCR2B = CCR2B (Homo sapiens, UniProt P41597); settings: escalating doses
Description: (§1) Analyses were performed by Millipore GPCR Profiler Service, by measuring intracellular calcium signal in real time using FLIPR^TETRA device. […] Antagonist percentage inhibition was referenced to EC80 control wells for each tested GPCR.

CCR5 = CCR5 (Homo sapiens, UniProt P51681); settings: escalating doses
Description: as §1

monocytes = assay: Monocyte adhesion assay (TNFα-stimulated HUVEC); format: cell-based, human; settings: 1-10 μg/ml VB-201; compared to the solvent control
Description: Matrix plates were pre-seeded with HUVEC and subjected to 4 hour stimulation with 10 ng/ml TNFα to induce expression of adhesion molecules. Freshly isolated monocytes were stained for 30 minutes with 5 µM calcein AM (Invitrogen) in serum free RPMI and then washed twice with PBS to remove excess dye. […] 10^5 stained monocytes were loaded per well into 96-well dishes and allowed to adhere for 15 minutes. Following 4 washes with PBS, adherent monocyte intensity was read using FLUOROSKAN Ascent FL device using excitation at 485 nm and emission at 538 nm.
Next, we examined whether VB-201 or oxidized PAPC treatment of monocytes affects their interaction with endothelial cells. HUVEC were plated in 96-wells and treated with TNFαc to induce expression of adhesion molecules. […] Following extensive washes, adherent monocytes were quantified by fluorescence.

[1] = tested on: NIH-3T3 mouse fibroblasts; assay: Wound-healing 'scratch' assay; format: cell-based; settings: data not shown
C57B6J WT mice = assay: Thioglycollate-induced peritonitis model (monocyte migration in vivo); set-up: species or system mouse; settings: oral
Description: After 5 days of administration, thioglycollate was injected to the peritoneal cavity of the mice to induce monocyte migration. Four days later, mice were sacrificed and migrating cells were collected from the peritoneum and counted by hemocytometer. Data are mean±SE, collected from 3-4 independent experiments. […] FIG. 26B is a FACS analysis. To characterize their identity, migrating cells were stained with the macrophage marker F4/80 and the neutrophils marker GR-1.
In this model, injection of thioglycollate to the peritoneal cavity induces a “sterile” inflammatory response recruiting peripheral monocytes to the peritoneum, where they differentiate into macrophages (Li, Y. M., et al., J. Immunol. Methods. 1997; 201:183-188). […] Upon sacrifice, the number and identity of the cells accumulating in the peritoneum was determined by FACS, and plasma samples were taken for quantification by Liquid Chromatography-Tandem Mass Spectrometry. Three days after thioglycollate injection 95% of the cells in the peritoneum were macrophages (F4/80 positive, GR-1 negative cells) (FIG. 26B).

TNFα receptor = settings: concentrations of up to 17 μM; data not shown
Lp-PLA2 = Lp-PLA2 (Homo sapiens, UniProt Q13093); settings: concentrations of up to 40 μM; data not shown
[2] = tested on: phosphorylation of Akt, MEK1/2, ERK1/2 and p38 in human monocytes; settings: stimulation with MCP-1, MIP-1α or RANTES; shown in WO 2011/083469; cited from earlier work
THP-1 cells = assay: AKT and ERK pathway activation in THP-1 cells, Western blot; settings: 8.5 μM VB-201, 20 min
Description: THP-1 cells were incubated for 16 hrs in RPMI-1640 medium supplemented with 0.5% FBS and 1% Pen/Strep/Glutamine to reduce basal signaling readouts. […] Stimulation with 100 μM GTP-γ-s, an activator of G-proteins, was performed for 2, 5 or 15 minutes. Cells were harvested and analyzed by SDS-PAGE. […] Total ERK1/2 levels serve as loading control.
The THP1 or HEK293 cell lines were grown in medium supplemented with 0.5% FBS and 1% Pen/Strep/Glutamine. […] Cells were washed twice and harvested with lysis buffer and analyzed by SDS-PAGE. […] Alpha Tubulin levels serve as loading control.
THP-1 cells were incubated for 16 hrs in RPMI-1640 medium supplemented with 0.5% FBS and 1% Pen/Strep/Glutamine to reduce basal signaling readouts. […] Stimulation with 30 μg/ml of CRP, activator the CD32 and CD64 receptors, was performed for 2, 5 or 15 min. Cells were harvested and analyzed by SDS-PAGE. […] Total ERK1/2 levels serve as loading control.

CCR2B, sequence (P41597 1-360 isoform P41597-2): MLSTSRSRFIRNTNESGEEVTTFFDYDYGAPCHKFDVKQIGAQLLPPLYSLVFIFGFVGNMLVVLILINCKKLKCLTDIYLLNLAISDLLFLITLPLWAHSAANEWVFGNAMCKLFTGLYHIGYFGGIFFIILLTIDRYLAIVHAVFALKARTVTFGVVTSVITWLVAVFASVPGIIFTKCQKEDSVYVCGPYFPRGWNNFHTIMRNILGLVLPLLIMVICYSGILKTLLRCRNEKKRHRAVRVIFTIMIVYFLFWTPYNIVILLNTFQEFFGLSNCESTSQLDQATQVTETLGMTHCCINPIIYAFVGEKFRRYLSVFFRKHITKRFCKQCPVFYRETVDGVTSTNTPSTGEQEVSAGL
Lp-PLA2, sequence (Q13093 22-441): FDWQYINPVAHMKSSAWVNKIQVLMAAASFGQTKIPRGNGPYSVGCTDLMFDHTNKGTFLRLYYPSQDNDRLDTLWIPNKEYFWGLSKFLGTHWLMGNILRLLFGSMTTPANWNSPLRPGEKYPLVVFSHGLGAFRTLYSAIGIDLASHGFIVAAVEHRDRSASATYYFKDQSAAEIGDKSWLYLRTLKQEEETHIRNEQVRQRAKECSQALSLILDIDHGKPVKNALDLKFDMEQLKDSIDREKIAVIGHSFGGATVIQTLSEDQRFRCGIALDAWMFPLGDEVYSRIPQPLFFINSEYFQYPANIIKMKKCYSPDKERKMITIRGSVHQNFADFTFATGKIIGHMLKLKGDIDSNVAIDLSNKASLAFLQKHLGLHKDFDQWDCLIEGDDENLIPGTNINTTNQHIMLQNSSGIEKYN
CCR5, sequence (P51681 whole entry): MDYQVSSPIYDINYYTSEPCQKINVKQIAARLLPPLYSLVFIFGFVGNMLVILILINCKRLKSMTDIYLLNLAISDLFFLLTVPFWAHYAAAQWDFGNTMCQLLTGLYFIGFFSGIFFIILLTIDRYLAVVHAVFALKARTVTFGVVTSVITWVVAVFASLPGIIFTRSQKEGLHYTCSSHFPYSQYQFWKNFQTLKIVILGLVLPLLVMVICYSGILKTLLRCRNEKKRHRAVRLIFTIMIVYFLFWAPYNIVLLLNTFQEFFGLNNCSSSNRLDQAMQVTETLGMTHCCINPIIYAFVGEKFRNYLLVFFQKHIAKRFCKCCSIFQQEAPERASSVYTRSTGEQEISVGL
TLR4, sequence (O00206 24-839): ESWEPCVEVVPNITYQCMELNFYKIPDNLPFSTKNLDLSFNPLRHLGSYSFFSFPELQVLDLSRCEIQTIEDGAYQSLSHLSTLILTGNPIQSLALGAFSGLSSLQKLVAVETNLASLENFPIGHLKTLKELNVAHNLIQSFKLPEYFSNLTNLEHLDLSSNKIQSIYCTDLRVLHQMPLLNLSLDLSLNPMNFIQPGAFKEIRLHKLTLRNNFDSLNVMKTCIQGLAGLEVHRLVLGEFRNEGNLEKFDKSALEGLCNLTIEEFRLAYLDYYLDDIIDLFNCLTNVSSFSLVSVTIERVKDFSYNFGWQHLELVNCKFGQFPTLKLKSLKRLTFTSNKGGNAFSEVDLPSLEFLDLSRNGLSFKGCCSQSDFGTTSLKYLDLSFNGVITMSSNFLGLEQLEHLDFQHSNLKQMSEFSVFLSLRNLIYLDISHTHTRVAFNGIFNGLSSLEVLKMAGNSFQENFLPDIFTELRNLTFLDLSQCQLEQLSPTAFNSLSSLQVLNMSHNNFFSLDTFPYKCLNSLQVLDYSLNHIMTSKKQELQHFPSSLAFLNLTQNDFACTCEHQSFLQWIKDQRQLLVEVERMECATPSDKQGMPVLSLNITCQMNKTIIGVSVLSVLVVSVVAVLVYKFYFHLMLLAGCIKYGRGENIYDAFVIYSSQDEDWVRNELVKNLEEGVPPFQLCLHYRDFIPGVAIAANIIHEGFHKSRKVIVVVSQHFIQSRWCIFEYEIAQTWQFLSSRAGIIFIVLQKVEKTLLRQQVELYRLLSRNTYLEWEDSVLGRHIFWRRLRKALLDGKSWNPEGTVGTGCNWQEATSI
TLR4, sequence (Q9Y6Y9 17-160 partner limits assumed): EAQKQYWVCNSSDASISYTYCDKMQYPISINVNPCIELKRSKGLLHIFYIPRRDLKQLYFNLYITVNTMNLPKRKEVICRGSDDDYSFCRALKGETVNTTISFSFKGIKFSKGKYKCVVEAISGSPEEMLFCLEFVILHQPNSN
TLR2, sequence (O60603 21-784): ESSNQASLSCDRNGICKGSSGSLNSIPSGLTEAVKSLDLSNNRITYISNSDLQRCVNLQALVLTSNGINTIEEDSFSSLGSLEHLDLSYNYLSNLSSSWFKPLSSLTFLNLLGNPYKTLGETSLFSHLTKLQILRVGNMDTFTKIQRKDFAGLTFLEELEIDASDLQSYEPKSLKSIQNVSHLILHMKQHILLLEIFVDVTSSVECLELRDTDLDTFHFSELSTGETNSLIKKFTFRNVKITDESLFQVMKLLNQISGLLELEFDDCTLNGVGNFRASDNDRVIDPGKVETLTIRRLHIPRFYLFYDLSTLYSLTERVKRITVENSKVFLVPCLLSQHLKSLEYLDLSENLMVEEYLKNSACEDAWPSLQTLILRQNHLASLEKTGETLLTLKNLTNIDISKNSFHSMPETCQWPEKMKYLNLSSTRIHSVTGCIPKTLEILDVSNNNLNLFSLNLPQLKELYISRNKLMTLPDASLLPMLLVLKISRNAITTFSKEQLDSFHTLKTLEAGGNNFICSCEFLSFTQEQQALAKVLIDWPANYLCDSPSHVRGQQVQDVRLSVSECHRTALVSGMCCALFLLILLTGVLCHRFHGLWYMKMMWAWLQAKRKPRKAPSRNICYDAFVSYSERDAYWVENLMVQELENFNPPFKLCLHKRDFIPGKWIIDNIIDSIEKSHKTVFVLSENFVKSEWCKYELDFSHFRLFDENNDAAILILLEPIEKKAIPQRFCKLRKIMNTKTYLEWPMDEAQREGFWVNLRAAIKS

CCCCCCCCCCCCCCCCOC[C@H](COP(=O)([O-])OCC[N+](C)(C)C)OCCCCC(=O)O [VB-201, (R)-1-hexadecyl-2-(4′-carboxyl)butyl-sn-glycero-3-phosphocholine]
activation of p38, ERK1/2 and the NFκB pathway following activation of TLR4 (TLR4): inhibited activation of p38, ERK1/2 and the NFκB pathway in a dose-dependent manner
binding to cell surface expressed TLR2 (TLR2): Binds Cell Surface Expressed TLR2
antagonistic effect against CCR2B (CCR2B): did not induce an antagonistic effect
antagonistic effect against CCR5 (CCR5): did not induce an antagonistic effect
monocyte adhesion to HUVEC (monocytes): had no effect on their adhesion to HUVEC
cell migration in wound-healing scratch assay [1]: no effect on cell migration
inhibition of peritoneal macrophage accumulation (C57B6J WT mice; 0.04 mg/kg/day): no inhibitory effect
inhibition of peritoneal macrophage accumulation (C57B6J WT mice; 0.4 mg/kg): ~25%
reduction in the number of peritoneal macrophages relative to PBS-treated animals (C57B6J WT mice; 4 mg/kg): > 60%
inhibition of TNFα receptor (TNFα receptor): No inhibition
inhibition of Lp-PLA2 (Lp-PLA2): No inhibition
ERK1/2 phosphorylation and MEK1/2 phosphorylation [2]: inhibition by VB-201 of ERK1/2 phosphorylation and MEK1/2 phosphorylation
phospho-AKT(Ser473) levels (THP-1 cells; 30 μg/ml CRP): reduction in phospho-ERK1/2 and phospho-AKT(Ser473) levels
phospho-ERK1/2 levels (THP-1 cells; 30 μg/ml CRP): reduction in phospho-ERK1/2 and phospho-AKT(Ser473) levels
phospho-AKT(Ser473) levels (THP-1 cells; 100 μM GTP-γ-s): reduction in phospho-ERK1/2 and phospho-AKT (Ser473) levels
phospho-ERK1/2 levels (THP-1 cells; 100 μM GTP-γ-s): reduction in phospho-ERK1/2 and phospho-AKT (Ser473) levels
EGF-induced ERK1/2 phosphorylation (THP-1 cells; EGF 200 ng/ml): inhibition of ERK1/2 phosphorylation in the THP-1 monocytic cell line
